The values that follow come from the Biogen ADME set (Fang et al. 2023).

The conditions of the data set: for aqueous solubility: pH 6.8.

The structures appear in SMILES notation. In brackets after ≈: the same amount, converted by molar mass.

Regarding `COCCOCc1ccc(-c2cc3onc(-c4ccccc4)c3c(=O)n2C)cc1`, the MDR1-MDCK efflux ratio stood at 0.466; the intrinsic clearance, human liver microsomes stood at 13.7 mL/min/kg; the intrinsic clearance, rat liver microsomes is 135 mL/min/kg; the aqueous solubility – broadly, how much of the substance goes into solution per volume – came to 14.2 µg/mL (≈ 36.5 µM).
Regarding `Fc1ccc(-c2ccc3c(c2)[nH]c2ccncc23)cn1`, the MDR1-MDCK efflux ratio was found to be 0.469; the fraction unbound, human plasma stood at 0.045; the fraction unbound, rat plasma is 0.0437; the intrinsic clearance, human liver microsomes is 16.8 mL/min/kg. Also, the intrinsic clearance, rat liver microsomes stood at 162 mL/min/kg.
Consider `O=C(c1noc2c1CCCC2)N1CCN(c2ncccn2)CC1`, for which the MDR1-MDCK efflux ratio came to 0.624; the intrinsic clearance, human liver microsomes amounted to 10.3 mL/min/kg; the intrinsic clearance, rat liver microsomes is 2910 mL/min/kg; the aqueous solubility came out at 53.3 µg/mL (≈ 170 µM).
The molecule `Clc1ccc(CSc2nc(-c3ccccc3)cs2)cn1` yielded an intrinsic clearance, human liver microsomes of 221 mL/min/kg and an intrinsic clearance, rat liver microsomes of 2260 mL/min/kg.
For the molecule `COCc1nc(-c2cc(F)ccc2F)c(C)s1`, the MDR1-MDCK efflux ratio turned out to be 0.684; the intrinsic clearance, human liver microsomes was 133 mL/min/kg; the intrinsic clearance, rat liver microsomes worked out at 425 mL/min/kg; the aqueous solubility is 3.6 µg/mL (≈ 14.1 µM).
For `CN1C(=O)COc2ccc(NC(=O)CCN3C(=O)COc4ccc(Cl)cc43)cc21` the same measures were 9.31, 155 mL/min/kg, 1170 mL/min/kg and 1.5 µg/mL (≈ 3.61 µM).
For `O=C(CCc1ccc(Cl)cc1)N1CCCC(c2n[nH]cc2-c2cccc(F)c2)C1` (stereo unspecified) the same measures were 5.67, 930 mL/min/kg, 3260 mL/min/kg and 3.9 µg/mL (≈ 9.47 µM).
For `Cc1cc(C(=O)NCCC2=CSC3=NCCCN23)c2cccc(C)c2n1` the same measures were 8.31, not above 4.74 mL/min/kg, 291 mL/min/kg and 46.1 µg/mL (≈ 126 µM).
Turning to `O=C1c2ccccc2C(=O)N1CCNc1ccc(F)cc1`, the MDR1-MDCK efflux ratio amounted to 0.43; the intrinsic clearance, human liver microsomes was found to be 87.6 mL/min/kg; the intrinsic clearance, rat liver microsomes was 615 mL/min/kg.
With `COCC(=O)N(CC1CCCO1)c1nc2c(s1)CCc1c-2cnn1C` (stereo unspecified), the intrinsic clearance, human liver microsomes amounted to 6.3 mL/min/kg and the intrinsic clearance, rat liver microsomes worked out at 14.2 mL/min/kg.
Consider `O=C(O)c1ccc(=O)n(CCc2c[nH]c3ccccc23)c1`, for which the MDR1-MDCK efflux ratio was 2.39; the intrinsic clearance, human liver microsomes was not above 4.74 mL/min/kg; the intrinsic clearance, rat liver microsomes was not above 10.7 mL/min/kg; the aqueous solubility came to 42.4 µg/mL (≈ 150 µM).
`Cc1cccc(OCCCNc2cc(Cn3c(C)nc4ccccc43)nc(N)n2)c1`: the MDR1-MDCK efflux ratio was 22.7; the intrinsic clearance, human liver microsomes turned out to be 535 mL/min/kg; the intrinsic clearance, rat liver microsomes worked out at 2050 mL/min/kg; the aqueous solubility stood at 35.5 µg/mL (≈ 88.1 µM).
`O=C(c1ccc(NS(=O)(=O)c2cccc3cccnc23)cc1)N1CCN(CC2CC2)CC1` registered an intrinsic clearance, human liver microsomes of 75.9 mL/min/kg and an intrinsic clearance, rat liver microsomes of 604 mL/min/kg.
`CNC(=O)Cc1nc(-c2cncc(C)c2)cs1`: the MDR1-MDCK efflux ratio is 0.978; the intrinsic clearance, human liver microsomes came to 5.86 mL/min/kg; the intrinsic clearance, rat liver microsomes stood at 14.5 mL/min/kg; the aqueous solubility was 37.6 µg/mL (≈ 152 µM).
`CCCCCCCC/C(=C\CCCCCCCC(=O)O)[N+](=O)[O-]` returned an intrinsic clearance, human liver microsomes of 42.9 mL/min/kg; an intrinsic clearance, rat liver microsomes of 84.9 mL/min/kg; an aqueous solubility of 12.7 µg/mL (≈ 38.8 µM).
For `Clc1cnc(NCC2(CN3CCCC3)CC2)nc1`, the MDR1-MDCK efflux ratio stood at 0.734; the intrinsic clearance, human liver microsomes is not above 4.74 mL/min/kg; the intrinsic clearance, rat liver microsomes is 134 mL/min/kg.
Consider `O=C(NCc1ncc(-c2ccccc2)o1)C1CCCCC1`, for which the MDR1-MDCK efflux ratio stood at 0.57; the intrinsic clearance, human liver microsomes turned out to be 41.9 mL/min/kg; the intrinsic clearance, rat liver microsomes is 668 mL/min/kg; the aqueous solubility is 75.9 µg/mL (≈ 267 µM).
Regarding `O=C(COc1ccc(F)cc1F)N1CCNC1=O`, the aqueous solubility was determined as 97 µg/mL (≈ 379 µM).
Consider `Cc1cccc(NC(=O)CN(C)Cc2nc3ccc(Cl)cc3c(=O)[nH]2)c1C`, for which the MDR1-MDCK efflux ratio was determined as 12.5; the intrinsic clearance, human liver microsomes worked out at 101 mL/min/kg; the intrinsic clearance, rat liver microsomes came to 1270 mL/min/kg.
`Clc1cnc(NCC2(c3ccncc3)CC2)nc1` yielded an intrinsic clearance, human liver microsomes of 26 mL/min/kg and an intrinsic clearance, rat liver microsomes of 472 mL/min/kg.
As for `c1nc(N2CCC3(CCCCC3)C2)c2cn[nH]c2n1`, the MDR1-MDCK efflux ratio was found to be 0.8; the intrinsic clearance, human liver microsomes stood at 8.33 mL/min/kg; the intrinsic clearance, rat liver microsomes was found to be 710 mL/min/kg.
For `Fc1cc(Br)ccc1CNCc1ccccn1` the same measures were 12, 26.5 mL/min/kg and 445 mL/min/kg.
For the molecule `O=C(Nc1ccc(Cl)cn1)C1(c2cccc(Cl)c2)CC1`, the MDR1-MDCK efflux ratio worked out at 0.574 and the aqueous solubility came out at 0.33 µg/mL (≈ 1.07 µM).
Consider `CNCc1cc(NC)nc(C2CCCN2C(=O)C(C)(C)c2ccc(C)cc2)n1` (stereo unspecified), for which the MDR1-MDCK efflux ratio is 36.8; the intrinsic clearance, human liver microsomes was 16.2 mL/min/kg; the intrinsic clearance, rat liver microsomes amounted to 153 mL/min/kg.
With `Cc1ccc(Oc2ccc(Cl)cc2NC(=O)CN(C)CC(=O)N(C)C)cc1`, the MDR1-MDCK efflux ratio was 1.61; the fraction unbound, human plasma was 0.00885; the intrinsic clearance, human liver microsomes was 1050 mL/min/kg; the intrinsic clearance, rat liver microsomes was found to be 2420 mL/min/kg.
With `COc1ccccc1C(=O)NCc1nc(C)cc(N2CCCCC2)n1`, the MDR1-MDCK efflux ratio worked out at 0.243; the intrinsic clearance, human liver microsomes is 96.3 mL/min/kg; the intrinsic clearance, rat liver microsomes is 1050 mL/min/kg; the aqueous solubility stood at 67 µg/mL (≈ 197 µM).
As to `CCc1cc(N(C)Cc2ccc(N)nc2)nc(C)n1`, the MDR1-MDCK efflux ratio was determined as 1.99; the intrinsic clearance, human liver microsomes was not above 4.74 mL/min/kg; the intrinsic clearance, rat liver microsomes was not above 10.7 mL/min/kg; the aqueous solubility was found to be 36.5 µg/mL (≈ 142 µM).
On to `COc1cccc(CN2CCc3nc(-c4cnc(C)cn4)nc(O)c3C2)c1`, for which the intrinsic clearance, human liver microsomes is not above 4.74 mL/min/kg and the intrinsic clearance, rat liver microsomes worked out at 38.2 mL/min/kg.
As to `O=C(CCCc1cc(Cl)sc1Cl)N1CCC(O)CC1`, the MDR1-MDCK efflux ratio is 0.857; the intrinsic clearance, human liver microsomes is 52.4 mL/min/kg; the intrinsic clearance, rat liver microsomes stood at 741 mL/min/kg; the aqueous solubility came to 30.1 µg/mL (≈ 93.4 µM).
For `CS(=O)(=O)N1CC(c2n[nH]c3ncccc23)C1` the same measures were 1.41, not above 4.74 mL/min/kg, not above 10.7 mL/min/kg and 33.3 µg/mL (≈ 132 µM).
Consider `O=c1c2ccncc2ncn1[C@H]1CCN(Cc2ccccc2)C1`, for which the MDR1-MDCK efflux ratio came out at 0.442; the intrinsic clearance, human liver microsomes turned out to be 22.6 mL/min/kg; the intrinsic clearance, rat liver microsomes turned out to be 796 mL/min/kg.
As for `COc1ccc(-n2cc3c(c2-c2ccccc2Br)c(=O)n(C)c(=O)n3C)cc1`, the MDR1-MDCK efflux ratio turned out to be 0.946; the intrinsic clearance, human liver microsomes came to 37.5 mL/min/kg; the intrinsic clearance, rat liver microsomes is 521 mL/min/kg; the aqueous solubility is 4.92 µg/mL (≈ 11.2 µM).
For `CC(=O)N1CCCN(C(=O)Nc2ccc(N(C)C3CCCCC3)c(F)c2)CC1` the same measures were 28.2, 103 mL/min/kg, 924 mL/min/kg and 67.7 µg/mL (≈ 173 µM).
On to `Cc1nn(C)c(C)c1-c1cc(C(C)(C)C)nc(N(C)C)n1`, for which the MDR1-MDCK efflux ratio stood at 0.619; the intrinsic clearance, human liver microsomes worked out at 51.6 mL/min/kg; the intrinsic clearance, rat liver microsomes is 366 mL/min/kg.
Consider `CC(C)c1nc(NCc2cccnc2)n(C)n1`, for which the MDR1-MDCK efflux ratio was determined as 3.72; the intrinsic clearance, human liver microsomes was not above 4.74 mL/min/kg; the intrinsic clearance, rat liver microsomes is not above 10.7 mL/min/kg; the aqueous solubility was 38.2 µg/mL (≈ 165 µM).
In the case of `CSc1cnc(N2CCCN(c3ncc(SC)cn3)CC2)nc1`, the MDR1-MDCK efflux ratio worked out at 0.648; the intrinsic clearance, human liver microsomes was 131 mL/min/kg; the intrinsic clearance, rat liver microsomes worked out at 1850 mL/min/kg.
For `Cn1cc(CNc2ncccn2)c(C(C)(C)C)n1` the same measures were 0.905, not above 4.74 mL/min/kg and 363 mL/min/kg.
For `Cc1nc(-c2ccccc2)nc(O)c1C` the same measures were 0.634, 19.3 mL/min/kg and 54.3 mL/min/kg.
For `C=C(C)COc1ccc(C(=O)NCCc2cn3ccccc3n2)cc1`, the intrinsic clearance, human liver microsomes was 116 mL/min/kg; the intrinsic clearance, rat liver microsomes worked out at 2190 mL/min/kg; the aqueous solubility amounted to 27.4 µg/mL (≈ 81.7 µM).
As for `O=C(NC1CCCC1)C(=O)c1ccc2c(c1)CCC2`, the MDR1-MDCK efflux ratio came to 0.548; the intrinsic clearance, human liver microsomes was 163 mL/min/kg; the intrinsic clearance, rat liver microsomes turned out to be 908 mL/min/kg; the aqueous solubility was 31.3 µg/mL (≈ 122 µM).
For `Cc1cccc(C)c1OCC(=O)N(C)C1(C#N)CCC1` the same measures were 0.621, 13.3 mL/min/kg, 472 mL/min/kg and 56.1 µg/mL (≈ 206 µM).
Turning to `Cc1ccc(C(=O)COC(=O)c2cc(O)nc3ccccc23)cc1`, the MDR1-MDCK efflux ratio stood at 0.502 and the aqueous solubility was 0.69 µg/mL (≈ 2.15 µM).
On to `c1ccc(Cc2ccccc2-c2nnc(-c3cccnc3)o2)cc1`, for which the MDR1-MDCK efflux ratio came to 0.45 and the aqueous solubility amounted to 0.22 µg/mL (≈ 0.702 µM).
Take `CN1CCC(N(Cc2cccnc2)C(=O)NCCCc2ccccc2)CC1`: the MDR1-MDCK efflux ratio worked out at 131; the intrinsic clearance, human liver microsomes stood at 6.28 mL/min/kg; the intrinsic clearance, rat liver microsomes stood at 1140 mL/min/kg.
As to `Cc1nnc(-c2ccc(N3CCC(Oc4cc(F)ccc4Cl)CC3)nn2)o1`, the MDR1-MDCK efflux ratio was determined as 0.65; the fraction unbound, human plasma was determined as 0.0145; the intrinsic clearance, human liver microsomes is not above 4.74 mL/min/kg.
Consider `CCN(CC)S(=O)(=O)c1ccc2c(c1)CCN2CC(=O)NCc1ccccc1F`, for which the MDR1-MDCK efflux ratio was found to be 9.92; the intrinsic clearance, human liver microsomes worked out at 337 mL/min/kg; the intrinsic clearance, rat liver microsomes amounted to 1800 mL/min/kg; the aqueous solubility was 43.7 µg/mL (≈ 104 µM).
